Square brackets hold non-standard residues; d marks the D form. Peptide text beside a SMILES is read from it. * marks the point of attachment. Nle = CCCC[C@H](N)C(=O)O; Cbz = O=C(OCc1ccccc1)*
How the values were obtained:
[1] = tested on: NOXA; assay: Western blot of NOXA after proteasome inhibitors in melanoma cells; assay type: cell-based, human; settings: RJ002L, C8161, MUM2B, 18 hrs
Description: A panel of melanoma cells were used to assess the effect of bortezomib on pro-apoptotic proteins. RJ002L, C8161, MUM2B and SK-MeI-28 melanoma cells, as well as two normal melanocyte cultures (MC-010 and MC-012) were examined. Prior to testing, the RJ002L melanoma cell lines were maintained in RPMI supplemented with 10% FBS. Late passage melanoma cell lines (C8161, MUM2B and SK-Me1028) were utilized as previously described (Welch D et al., 1991, Int J Cancer 47:227-237; Bittner M et al., 2000, Nature 406:536-540). Normal human melanocytes were isolated from neonatal foreskins and cultured as previously described (Qin J et al., 2004, Mol Cancer Ther 3:895-902). Proliferating cells were examined by Western blot analysis before and after 18 hrs of exposure to bortezomib (1 μM). Antibodies were obtained as follows: Bad (SC-8044), Bcl-2 (SC-7382), Bcl-xL (SC-634), Mcl-1 (SC-819), Bak (SC-832) from Santa Cruz Biotechnology (Santa Cruz, Calif.); NOXA (OP180) from Calbiochem; Bid, Bim and PUMA from Cell Signaling (Beverly, Mass.); BAX from Upstate (Charlottesville, Va.); and β-actin from ICN (Irvine, Calif.). For the Western blot analysis, whole cell extracts were prepared as previously described (Denning M et al., 1998, J Biol Chem 273:29995-30002). Briefly, cells were harvested by scraping monolayers and washed with PBS. Cell pellets were resuspended in CHAPS buffers containing a protease inhibitor cocktail. Extracts were vigorously shaken at 4° C. for 15 min followed by centrifugation. Supernatants were collected and protein concentration determined using Bio-Rad reagent. Thirty to 50 microgram protein samples were resolved by SDS-polyacrylamide gel electrophoresis and transferred to polyvinylidene difluoride membrane by electroblotting. Membranes were probed with the various primary antibodies overnight at 4° C., followed by detection using ECL reagents (Amersham Pharmacia Biotech, Piscataway, N.J.) according to manufacturer's instructions.
Two other proteasome inhibitors, lactasytsin and MG-132, were tested for the ability to induce NOXA in melanoma cells and melanocytes. […]

[2] = tested on: cyclins A and B1; assay: Cyclin expression in MDA-MB231 cells (ribonuclease protection assay, Western blot); assay type: cell-based, human
Procedure: To explore the effects on Notch-1 siRNA on the expression of cyclins, the main regulators of cell cycle progression, ribonuclease protection assays and Western blots on Notch-1 siRNA-treated cells were performed. Transfection of the MBA-MD231 cells with Notch-1 siRNA (5′-AAGTGTCTGAGGCCAGCAAGA-3′) (SEQ ID NO. 1) or control siRNA (5′-AACAGTCGCGTTTGCGACTGG-3′) (SEQ ID NO: 5), was performed as described above. Ribonuclease protection assays were performed by first preparing total RNA using a RNeasy Mini kit (QIAGEN Cat. #74104) according to the manufacturer's instructions. The multi-probe template set hCYC-1 (containing DNA templates for cyclin A, cyclin B, cyclin C, cyclin D1, cyclin D2, cyclin D3, cyclin A1 L32 and GAPDH) was purchased from BD Biosciences (Cat. # 556189). The DNA template was used to synthesize a [^32P]UTP (10 mCi/ml, Amersham Bioscience) labelled probe in the presence of a GACU pool using a […] RNA-polymerase (BD Bioscience RiboQuant RPA starter package, Cat. # 556144). Hybridization with 20 μg of each target RNA was performed at 56° C. overnight, followed by digestion with RNAse A and T1 according to the BD Bioscience standard protocol. After proteinase K treatment, samples were precipitated, loaded on a 4.75% acrylamide-urea gel, and run at 55 W with 0.5×TBE. Gels were dried in the gel dryer under vacuum for 2 h at 90° C. Then gels were exposed on Kodak film (Eastman Kodak, Rochester, N.Y.) with intensifying screens and developed at −70° C. Western blots were performed as described above. […] Western blot data confirmed these findings. […] CDK1 levels were only modestly affected. Cyclin A/cdk2 phosphorylates E2F-1/DP complexes at the end of S-phase, inactivating them. This prevents a re-initiation of DNA replication and assures that the genome is replicated only once at each S phase. Failure of cyclin A/cdk2 to inactivate E2F results in inappropriately persistent E2F activity, which may lead to apoptosis. E2F-1 is known to upregulate its own transcription. […]

## CC(C)C[C@H](NC(=O)[C@H](Cc1ccccc1)NC(=O)c1cnccn1)B(O)O [bortezomib, N-(2-pyrazine)carbonyl-L-phenylalanine-L-leucine boronic acid]
[1]; SK-MeI-28, 1 μM
  induction of BH3-only proteins: only NOXA was consistently induced in all four melanoma cells

## CCCC[C@@H](C=O)NC(=O)[C@H](CC(C)C)NC(=O)[C@H](CC(C)C)NC(=O)OCc1ccccc1 [z-Leu-Leu-Nle-CHO, N-benzyloxycarbonyl-leucyl-leucyl-norleucinal] (Cbz-Leu-Leu-[Nle]-aldehyde)
[2]; 0.5 or 1 μM, 24 h
  cyclin A and cyclin B protein (Western blot): dramatically reduced the levels of cyclin A protein at 0.5 μM, whereas cyclin B was decreased at 1 μM

## CC(C)C[C@@H](C=O)NC(=O)[C@H](CC(C)C)NC(=O)[C@H](CC(C)C)NC(=O)OCc1ccccc1 [MG-132, benzoxycarbonyl-Leucyl-Leucyl-Leucyl-aldehyde] (Cbz-Leu-Leu-Leu-aldehyde)
[1]; 1 μM or 10 μM
  NOXA induction: induced high NOXA levels

## 5′-AAGTGTCTGAGGCCAGCAAGA-3′ [Notch-1 siRNA]
[2]
  cyclin B1 protein (Western blot): striking decrease in the steady state levels of cyclin B1 at 48 hours
  cyclin mRNA expression (ribonuclease protection assay): decreases the expression of mRNAs for cyclins B1 and A, but not C, D, or A1
